Test results taken from US12324818B2, “Generation of alveolar epithelial type 1 (AT1) cells” (TRUSTEES OF BOSTON UNIVERSITY, priority 2022, dated 2025).

B1: keratinocyte growth factor (KGF) protein (protein, UniProt P21781 32-194, looked up)
Fibroblast growth factor 7: CNDMTPEQMATNVNCSSPERHTRSYDYMEGGDIRVRRLFCRTQWYLRIDKRGKVKGTQEMKNNYNIMEIRTVAVGIVAIKGVESEFYLAMNKEGKLYAKKECNEDCNFKELILENHYNTYASAKWTHNGGEMFVALNQKGIPVRGKKTKKEQKTAHFLPMAIT
notes: recombinant human keratinocyte growth factor

Key:
Format in all cases: cell-based, human
iAT2s [1] = assay: AGERtdTomato reporter induction in BU3 NGAT iAT2s (flow cytometry, live imaging); conditions: for effect on AGERtdTomato percentage and MFI: media containing L
Excerpt: FIG. 5A) BU3 NGAT iAT2s were passaged as usual into 3D Matrigel with CK+DCI+RI medium for 3 days. Medium was then kept the same or switched to LATS inhibitor-based media. CK DCI+L, DCI, or L DCI. (C=Chir, K=rhKGF, L=LATS-IN-1; “DCI” as defined in FIG. 2). FIG. 5B) Representative live fluorescence microscopy of iAT2s (BU3 NGAT clone) at 9 days after changing to the indicated medium, either without (FIG. 5B) or with (FIG. 5C) YAP5SA transduction (Scale bars=500 um in B; 50 um in FIG. 5C). FIG. 5D) Representative flow cytometry plots of NKX2-1GFP and AGERtdTomato 9 days post after changing to cach indicate medium. FIG. 5E) Cell counts and flow cytometry quantification of AGER tdTomato+ percentage and Mean Fluorescence Intensity (MFI) 9 days post medium change. One way ANOVA, N=3 per condition. FIG. 5F) Gene expression of AT1 and AT2 markers by whole well RT-qPCR. (1 way ANOVA, N=3 per condition). FIG. 5G) Whole mount immunofluorescence microscopy of BU3 NGAT organoids in L+DCI. Scale bar=50 um. FIG. 5H) Primary adult human AT2 cells (1° AT2s) were cultured as described 5 and 7 days post plating, medium was changed to published, human-serum containing Alveolar Differentiation Media (ADM) or L+DCI. Whole well RT-qPCR of selected genes 7 days post medium change. 1 way ANOVA, N=3 per condition. FIG. 5I) Experimental schematic: BU3 NGAT iAT1s were grown in L+DCI for 10 days, sorted on AGERtdTomato, and then plated in 3D Matrigel in either L+DCI or CK+DCI. Outgrowths of sorted cells were analyzed after an additional 9 days. FIG. 5J) Representative flow cytometry plots of AGERtdTomato+ outgrowth from (FIG. 5I). FIG. 5K) Quantification of indicated fluorescence (FACS), cell counts, or transcript expression (FIG. 5LL; whole well RT-qPCR) of cells from (FIG. 5I). Control sorted iAT1s in L are freshly sorted AGERtdTomato+ cells after 9 days in L+DCI. (N=3 per condition; K=Student's t test; L=1 way ANOVA). *p<0.05, **p<0.01, ***p<0.001, and […] for all panels.
(§1) iPSCs were first differentiated into iAT2s and passaged as above in 3D cultures in iAT2 medium (CK+DCI) supplemented for the first 3 days after passaging with 10 uM Y-27632 (Tocris). To generate iAT1s, 3 days after passaging iAT2s in 3D, the medium was replaced with “L+DCI”, consisting of [10 uM LATS-IN-1 (“L”; MedChemExpress Cat. No.: HY-138489), 50 nM dexamethasone (“D”; Sigma-Aldrich), 0.1 mM 8-bromoadenosine 3′,5′cyclic monophosphate sodium salt (Sigma-Aldrich; “C”), and 0.1 mM 3-isobutyl-1-methylxanthine (IBMX; Sigma-Aldrich; “I”)]. Cells were cultured up to 16 days in L+DCI in 3D while monitoring AGERtdTomatoexpression as detailed in the text.
0.05% trypsin was used to generate single cell suspensions which were resuspended in sort buffer [HBSS (ThermoFisher) with 2% FBS, 10 uM Y-27632 (Tocris)] with Live/dead stain [Calcein blue (Life technologies) or DRAQ7 (Abcam)]. Cells were sorted based on reporter expression: NKX2-1GFP and AGERtdTomatofor BU3 NGAT, or SFTPCtdTomatofor SPC2B2, as indicated in the text. Cell sorting was performed on a Moflo Astrios EQ (Beckman Coulter) and flow cytometry analysis was performed on an LSRII SORP (BD Biosciences) at the Boston University Flow Cytometry Core Facility. For Edu assays, the Click-iT Plus EdU Alexa Fluor 647 Flow Cytometry Assay Kit (Thermo Fisher Scientific) was used with EdU added 24 hours before cell isolation, and cells fixed in 4% paraformaldehyde (PFA) were analyzed on a Stratedigm (S1000EXI) cytometer with post-processing using Flow Jo software (BD Biosciences). For all other analyses, live non-fixed cells were sorted or analyzed as indicated in the text.

iAT2s [2] = assay: Whole well RT-qPCR of AT1/AT2 markers in iAT2s in LATS inhibitor media
Description: as §1
For RT-qPCR, whole well or sorted cells were collected and stored in Qiazol (Qiagen, 79306) prior to RNA isolation using RNeasy Plus Mini Kit according to the manufacturer's protocol (Qiagen, 74104), cDNA was then synthesized using MultiScribe™ Reverse Transcriptase (ThermoFisher 4311235). A QuantStudio instrument (Applied Biosciences) and predesigned Taqman probes were used and run in a 384-well format for 40 cycles. Relative expression was normalized to an 18S control and fold change over control cells was calculated using 2-ΔΔCt. Where indicated in the text, RNA extracts from adult primary human distal lung tissue explants, the kind gift of Barry Stripp (Cedars Sinai, Los Angeles) were employed as RT-qPCR controls. RNA was isolated via RNeasy Plus Mini Kit following manufacturer's protocol.

iAT2s [3] = assay: Withdrawal of Chir or KGF in YAP5SA-transduced BU3 NGAT iAT2s; conditions: YAP5SA differentiation model
Excerpt: FIG. 13A) BU3 NGAT iAT2s were passaged into 3D Matrigel in CK+DCI for 3 days, and then media was switched to media containing LATS-IN-1 and either Chir or KGF and grown for a further 11 days. Representative flow cytometry of NKX2-1GFPand AGERtdTomato. FIG. 13B) Quantification of AGERtdTomatocompared to CK DCI+L and DCI+L quantification in FIGS. 5A-5L. (N=3 per condition, 1 way ANOVA). FIG. 13C) BU3 NGAT iAT2s were transduced with either WT YAP or YAP5SA lentivirus in suspension with polybrene for 4 hours and then replated into 3D Matrigel in CK DCI. After 5 days, media was changed to withdraw one or both growth factors from the media. Cells were analyzed 11 days post media change. FIG. 13D) Cell counts of WT YAP and YAP5SA transduced cells in different medias (2 way ANOVA). First series is CK+DCI, second series is C+DCI, third series is K+DCI, fourth series is DCI. FIG. 13E) Representative flow cytometry of NKX2-1GFP and AGERtdTomato. FIG. 13F) Quantification of AGERtdTomatopercentage and Mean Fluorescence Intensity following YAP5SA transduction. (2 way ANOVA). First series is CK+DCI, second series is C+DCI, third series is K+DCI, fourth series is DCI. FIGS. 13G-13H) Gene expression of AT1 markers, YAP downstream targets, and AT2 markers by whole well RT-qPCR. (N=3, 2 way ANOVA). First series is CK+DCI, second series is C+DCI, third series is K+DCI, fourth series is DCI. […]

Molecule	AGERtdTomato induction, % of the NKX2-1GFP+ cells (iAT2s [1]; BU3 NGAT iAT2s in L+DCI, increasing over the following 2 weeks)	time to detectable AGERtdTomato induction in the NKX2-1+ population (iAT2s [1]; L supplementation of iAT2s)	time to morphologic changes resembling YAP5SA-transduced cells (iAT2s [1]; L supplementation of iAT2s)	iAT2s in which the AT1 program is driven (iAT2s [1]; complete serum free defined media containing LATS inhibitor)	dose yielding greatest frequency and brightness (MFI) of NKX2-1GFP/AGERtdTomato+ cells (iAT2s [1]; dose response testing, medium replaced day 3 after passaging, 2 weeks post passage)	NKX2-1 expression (iAT2s [2]; iAT2 media vs medias containing LATS-IN-1)	SFTPC expression (iAT2s [2]; medias containing LATS-IN-1)	AGER, CAV1, PDPN, and CLIC5 expression (iAT2s [2]; whole well RT-qPCR, wells containing the LATS inhibitor)	effect on AGERtdTomato percentage and MFI (iAT2s [1])	effect on AGERtdTomato and AT1 markers by bulk RT-qPCR (iAT2s [3])
O=C(N=c1sccn1Cc1ccccc1)c1c[nH]c2ncccc12 [LATS-IN-1, N-(3-benzylthiazol-2(3H)-ylidene)-1H-pyrrolo[2,3-b]pyridine-3-carboxamide]	84.97±1.23%	≤ 72 h	≤ 48 hours	up to 97%	10 µM	unchanged	decreased	significantly upregulated		
Cc1c[nH]c(-c2cnc(NCCNc3ccc(C#N)cn3)nc2-c2ccc(Cl)cc2Cl)n1 [Chir, CHIR99021]									significantly inhibitory	inhibitory effects
B1									significantly inhibitory	inhibitory effects
